Laboratory results from paper PMC5472749, “A covalent PIN1 inhibitor selectively targets cancer cells by a dual mechanism of action” (Nature Communications, 2017).

Target: T1, PIN1 (Homo sapiens, UniProt Q13526)
T1 construct: recombinant human PIN1
Test: trypsin-coupled PPIase assay (kinact/Ki; IC50 […]); LC/MS and MALDI MS/MS show a +[…] Da adduct on C113, absent in C113A
Type: biochemical
Conditions: read-out: Ki

T1 sequence (Q13526 whole entry): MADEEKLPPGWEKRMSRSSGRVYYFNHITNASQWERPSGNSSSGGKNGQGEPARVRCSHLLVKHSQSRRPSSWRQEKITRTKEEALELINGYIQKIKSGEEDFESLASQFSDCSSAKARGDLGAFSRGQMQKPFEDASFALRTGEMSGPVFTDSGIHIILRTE

Structure (SMILES): CC(C)(C)c1ccc(S(=O)(=O)/N=C2/C=C(SCC(=O)O)C(=O)c3ccccc32)cc1 [compound 1]
- KI (inactivation): 625 ± 325 nM
